Data set [1] is described as follows: Drug metabolism assessed as trypsin (unknown origin)-mediated digestion by measuring half life at 0.09 uM by HPLC analysis. It is filed as ADME. The following applies: human.
The next data set deals with Klebsiella pneumoniae. Description: Antibacterial activity against Klebsiella pneumoniae ATCC 10031 assessed as growth inhibition after 24 hrs by broth microdilution method. It is filed as functional. The conditions noted are these: ATCC 10031, 24 h. (Broth dilution looks for growth in wells or tubes with falling amounts of substance.)
A short description of data set [2]: Drug metabolism assessed as trypsin (unknown origin)-mediated digestion by measuring compound remaining at 0.09 uM after 60 mins by HPLC analysis. Type of data set: ADME. The conditions noted are these: human, read-out: Stability.
The test system of a further data set is Proteus mirabilis. Description: Antibacterial activity against Proteus mirabilis ATCC 25933 assessed as growth inhibition after 24 hrs by broth microdilution method. Type of data set: functional. The following applies: ATCC 25933, 24 h.
Another data set relates to Salmonella typhimurium. Description: Antibacterial activity against Salmonella typhimurium ATCC 14028 assessed as growth inhibition after 24 hrs by broth microdilution method. Type of data set: functional, Salmonella enterica subsp. enterica serovar Typhimurium. The conditions noted are these: Salmonella enterica, ATCC 14028, 24 h.
The next data set deals with Shigella dysenteriae. In words: Antibacterial activity against Shigella dysenteriae ATCC 9752 assessed as growth inhibition after 24 hrs by broth microdilution method. The following applies: ATCC 9752, 24 h. Type of data set: functional.
For a further data set, the system named is Bacillus spizizenii. Description: Antibacterial activity against Bacillus subtilis ATCC 6633 assessed as growth inhibition after 24 hrs by broth microdilution method. Type of data set: functional. The following applies: ATCC 6633, 24 h.
Data set [3] concerns Staphylococcus epidermidis. Description: Antibacterial activity against Staphylococcus epidermidis ATCC 12228 assessed as growth inhibition after 24 hrs by broth microdilution method. It is filed as functional. The conditions noted are these: ATCC 12228, 24 h.
The test system of the next data set is Escherichia coli. Description: Antibacterial activity against Escherichia coli ATCC 25922 assessed as growth inhibition after 24 hrs by broth microdilution method. Type of data set: functional. The conditions noted are these: ATCC 25922, 24 h.
The next data set deals with Pseudomonas aeruginosa. Description: Antibacterial activity against Pseudomonas aeruginosa ATCC 27853 assessed as growth inhibition after 24 hrs by broth microdilution method. It is filed as functional. The following applies: ATCC 27853, 24 h.
The subject of another data set is Staphylococcus aureus. In words: Antibacterial activity against Staphylococcus aureus ATCC 6538p assessed as growth inhibition after 24 hrs by broth microdilution method. Type of data set: functional.
Data set [4] in a line: Drug metabolism assessed as trypsin (unknown origin)-mediated digestion at 0.09 uM after 15 mins by HPLC analysis. It is filed as ADME. The following applies: human, 0.25 h.

Converted amounts (≈) assume the structure as drawn. *1 amine or outer side, *2 acyl side, *3 side chain or, on linkers, in order; H or OH if unused. Where a SMILES comes first, the peptide text is derived from it. Bridges are numbered along the chain shown (N, C = ends). [ ]: non-standard residue; d: D form. Nle(6-ylidene) = O=C([C@H](CCCC=[*:3])N[*:1])[*:2]; S5 = C=CCCC[C@](C)(N)C(=O)O

The term half-life denotes how long it takes for the measured level to halve. For orientation: MIC means the smallest concentration in the dilution series that meets the test's criterion for growth inhibition.

As for `CC(=O)N[C@H](C(=O)N[C@@H](CC(C)C)C(=O)N[C@@H](CCCCN)C(=O)N[C@@H](CCC(N)=O)C(=O)N[C@@H](Cc1ccccc1)C(=O)N[C@@]1(C)CCC/C=C\CCC[C@@H](C(=O)N[C@@H](CCCCN)C(=O)N[C@@H](Cc2c[nH]c3ccccc23)C(=O)N[C@@H](CC(C)C)C(=O)N[C@H](C(=O)N[C@@H](CCCCN)C(N)=O)C(C)C)NC(=O)[C@H](C(C)C)NC(=O)CNC(=O)[C@H](CCCCN)NC1=O)[C@@H](C)O` (Ac-TLKQF[S5]KGV[Nle(6-ylidene)]KWLVK-NH2; staple (Z) 6-10), the half-life at 0.09 µM in [1] is 1.2 h. The MIC in the data set with Klebsiella pneumoniae is more than 200 µg/mL; in the data set with Proteus mirabilis, more than 200 µg/mL; with Salmonella typhimurium it was more than 200 µg/mL; in the data set with Shigella dysenteriae it was more than 200 µg/mL; in the data set with Bacillus spizizenii, 3.13 µg/mL (≈ 1.69 µM); in data set [3], more than 200 µg/mL. Further, the MIC was more than 200 µg/mL in the data set on Escherichia coli, more than 200 µg/mL in the data set on Pseudomonas aeruginosa and 3.13 µg/mL (≈ 1.69 µM) in the data set with Staphylococcus aureus. Also, the remaining at 1 h, 0.09 µM in [2] is more than 90%.

For the molecule `CC(=O)N[C@H](C(=O)N[C@@H](CC(C)C)C(=O)N[C@@H](CCCCN)C(=O)N[C@@H](CCC(N)=O)C(=O)N[C@@H](Cc1ccccc1)C(=O)N[C@@]1(C)CCC/C=C\CCC[C@@H](C(=O)N[C@@H](CCCCN)C(=O)N[C@@H](CC(=O)O)C(=O)N[C@@H](CC(C)C)C(=O)N[C@H](C(=O)N[C@@H](CCCCN)C(N)=O)C(C)C)NC(=O)[C@H](Cc2c[nH]c3ccccc23)NC(=O)CNC(=O)[C@H](CCCCN)NC1=O)[C@@H](C)O` (Ac-TLKQF[S5]KGW[Nle(6-ylidene)]KDLVK-NH2; staple (Z) 6-10), the half-life at 0.09 µM in [1] was 0.617 h. The MIC in the data set on Klebsiella pneumoniae is 50 µg/mL (≈ 26.8 µM); in the data set with Proteus mirabilis, more than 200 µg/mL; in the data set on Salmonella typhimurium, more than 200 µg/mL; in the data set on Shigella dysenteriae, 50 µg/mL (≈ 26.8 µM); with Bacillus spizizenii, 6.25 µg/mL (≈ 3.35 µM); in data set [3], more than 200 µg/mL. Besides, the MIC turned out to be 100 µg/mL (≈ 53.5 µM) in the data set on Escherichia coli, 200 µg/mL (≈ 107 µM) in the data set on Pseudomonas aeruginosa and 6.25 µg/mL (≈ 3.35 µM) in the data set with Staphylococcus aureus. In addition, the remaining at 1 h, 0.09 µM in data set [2] is 75%.

For `CC(=O)N[C@H](C(=O)N[C@@H](CC(C)C)C(=O)N[C@@H](CCCCN)C(=O)N[C@@H](CCC(N)=O)C(=O)N[C@@H](Cc1c[nH]c2ccccc12)C(=O)N[C@@]1(C)CCC/C=C\CCC[C@@H](C(=O)N[C@@H](CCCCN)C(=O)N[C@@H](CC(=O)O)C(=O)N[C@@H](CC(C)C)C(=O)N[C@H](C(=O)N[C@@H](CCCCN)C(N)=O)C(C)C)NC(=O)[C@H](C(C)C)NC(=O)CNC(=O)[C@H](CCCCN)NC1=O)[C@@H](C)O` (Ac-TLKQW[S5]KGV[Nle(6-ylidene)]KDLVK-NH2; staple (Z) 6-10), in [1], the half-life at 0.09 µM was 1.18 h. Also, the MIC is 50 µg/mL (≈ 27.5 µM) in the data set on Klebsiella pneumoniae; more than 200 µg/mL with Proteus mirabilis; more than 200 µg/mL in the data set with Salmonella typhimurium; 50 µg/mL (≈ 27.5 µM) in the data set with Shigella dysenteriae; 6.25 µg/mL (≈ 3.43 µM) in the data set on Bacillus spizizenii; 100 µg/mL (≈ 54.9 µM) in [3]. Besides, the figures for the MIC in the data set with Escherichia coli, in the data set on Pseudomonas aeruginosa and in the data set with Staphylococcus aureus were 100 µg/mL (≈ 54.9 µM), more than 200 µg/mL and 6.25 µg/mL (≈ 3.43 µM), respectively. Also, the remaining at 1 h, 0.09 µM in [2] is more than 90%.

As for Ac-GILDTLKQFAKGVGKWLVKGAAQ-NH2, the MIC in the data set on Klebsiella pneumoniae is more than 200 µg/mL; in the data set with Proteus mirabilis, more than 200 µg/mL; with Salmonella typhimurium it was more than 200 µg/mL; in the data set with Shigella dysenteriae it was more than 200 µg/mL; with Bacillus spizizenii, 50 µg/mL; in [3] it was more than 200 µg/mL. Further, the MIC in the data set with Escherichia coli was more than 200 µg/mL; in the data set on Pseudomonas aeruginosa, more than 200 µg/mL; with Staphylococcus aureus, 100 µg/mL. In data set [4], the Drug metabolism result is given as “Active”.

For Ac-TLKQFAKGVGKWLVK-NH2, the MIC was more than 200 µg/mL with Klebsiella pneumoniae; more than 200 µg/mL in the data set on Proteus mirabilis; more than 200 µg/mL with Salmonella typhimurium; more than 200 µg/mL in the data set on Shigella dysenteriae; 200 µg/mL in the data set with Bacillus spizizenii; more than 200 µg/mL in data set [3]. In addition, the MIC is 200 µg/mL in the data set on Escherichia coli, more than 200 µg/mL with Pseudomonas aeruginosa and 100 µg/mL with Staphylococcus aureus. Moreover, in data set [4], the Drug metabolism entry was “Active”.

Source of the values: ChEMBL document CHEMBL3091300, “Truncated and constrained helical analogs of antimicrobial esculentin-2EM” (Bioorg Med Chem Lett, 2013).
